Experimental data from PubChem BioAssay (NCI).
Values joined by “and” are separate entries in the source; they are usually repeats but may differ in a detail not shown here. Equal values may be shown once.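 A five-concentration, 48-hour dose response in 96-well plates underlies each endpoint, interpolated linearly between surrounding concentrations. GI50 = concentration required for 50% inhibition of growth. At the TGI there is no net growth.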

Key:
Assay in all cases: DTP human tumour cell line panel, 48 h
HT29 colon = system: HT29 colon
DU-145 prostate = system: DU-145 prostate
HS 578T breast = system: HS 578T breast
U251 CNS = system: U251 CNS
UACC-62 melanoma = system: UACC-62 melanoma
EKVX NSCLC = system: EKVX NSCLC
SN12C renal = system: SN12C renal
MCF7 breast = system: MCF7 breast
A549 NSCLC = system: A549 NSCLC
SNB-75 CNS = system: SNB-75 CNS

Row | Structure (SMILES) | GI50 (HT29 colon) [µM] | TGI (HT29 colon) [µM] | GI50 (DU-145 prostate) [µM] | TGI (DU-145 prostate) [µM] | GI50 (HS 578T breast) [µM] | TGI (HS 578T breast) [µM] | GI50 (U251 CNS) | TGI (U251 CNS) [µM] | GI50 (UACC-62 melanoma) [µM] | TGI (UACC-62 melanoma) [µM] | TGI (EKVX NSCLC) [µM] | GI50 (SN12C renal) [µM] | TGI (SN12C renal) [µM] | GI50 (MCF7 breast) [µM] | TGI (MCF7 breast) [µM] | GI50 (A549 NSCLC) [µM] | TGI (A549 NSCLC) [µM] | TGI (SNB-75 CNS) [µM] | GI50 (SNB-75 CNS) [µM] | GI50 (EKVX NSCLC) [µM]
1 | NC1=NCCN1CC(=O)O | > 10000 | > 10000 | > 10000 | > 10000 | > 1000 | > 10000 | > 10000 µM | > 10000 | > 10000 | > 10000 | > 10000 | > 10000 | > 10000 | > 10000 | > 10000 | > 10000 | > 10000 | – | – | –
2 | CNC(=O)c1cccc2c(Nc3ccc(NS(C)(=O)=O)cc3OC)c3cccc(C)c3nc12 | – | 3.69 | – | – | – | – | – | 0.719 | – | 1.38 | 12.1 | – | 0.927 | – | – | – | 1.61 | 1.34 | – | –
3 | C[n+]1ccc(-c2c3nc(c(-c4cc[n+](C)cc4)c4ccc([n-]4)c(-c4cc[n+](C)cc4)c4nc(c(-c5cc[n+](C)cc5)c5ccc2[n-]5)C=C4)C=C3)cc1.[I-].[Zn+2] | – | – | – | – | – | – | 22 µM | 52.8 | 27.5 | > 100 | 47.6 | 19.7 | 43.3 | – | – | 22.3 | 49.5 | 32.8 | 12.5 | 11.1
4 | CC(C)(C)OC(=O)NC(CO)c1cccc(OCc2ccccc2)c1 (centres undefined) | – | > 100 | – | – | – | – | – | > 100 | – | > 100 | > 100 | – | > 100 | – | – | – | > 100 | > 100 | – | –
5 | O=c1oc(=O)c2oc3ccccc3oc1=2 | – | > 100 | – | – | – | – | – | > 100 | – | > 100 | > 100 | – | > 100 | – | – | – | > 100 | > 100 | – | –
6 | CCS(=O)(=O)Nc1cccc(Nc2c3cccc(C)c3nc3c(C)cccc23)c1OC | 1.93 | 10.5 | 0.545 | 14.1 | 5.69 | 44.8 | 0.404 µM | 19.8 | 0.635 | > 100 | – | 0.374 | 9.84 | 0.168 | 49.5 | 0.202 | 4.02 | 22 | 1 | –
7 | COc1ccc(-c2nc(N3CCN(C(=O)C4CCCCC4)CC3)c3c4c(sc3n2)CCCC4)cc1 | > 100 | > 100 | > 100 | > 100 | 24.7 | > 100 | 37.9 µM | > 100 | 40.8 | > 100 | – | > 100 | > 100 | 82.9 | > 100 | 50.1 | > 100 | 33.9 | 14.1 | –
8 | CCCCCCc1nc2nc(Cl)c(Cl)nc2[nH]1 | > 100 | > 100 | 83.2 | > 100 | > 100 | > 100 | 6.44 µM | > 100 | 3.2 | > 100 | – | 4.26 | > 100 | 4.08 | > 100 | 4.34 | > 100 | – | – | –
9 | COc1cccc2c1c(C1=C(c3cn(C)c4ccccc34)C(=O)NC1=O)cn2C | > 25 | > 25 | > 25 | > 25 | > 25 | > 25 | > 25 µM | > 25 | > 25 | > 25 | – | > 25 | > 25 | > 25 | > 25 | > 25 | > 25 | > 25 | > 25 | –
10 | O=C(CCC(C(=O)c1ccccc1)c1ccccc1)c1ccccc1 (centres undefined) | 4.21 | > 100 | 30.1 | > 100 | 11.8 | > 100 | 13.4 µM | > 100 | 7.15 | > 100 | – | 20.2 | > 100 | 15.1 | > 100 | 7.29 | > 100 | > 100 | 27.2 | –
11 | O=S(O)CCCSSc1ccccc1 | – | > 100 | – | – | – | – | – | > 100 | – | > 100 | 88.1 | – | > 100 | – | – | – | > 100 | 88.2 | – | –
12 | CC1=C[P+](Cc2ccccc2)(c2ccccc2)CC1 (centres undefined) | – | > 100 | – | – | – | – | 23.1 µM and 58.1 µM and 9.71 µM | > 100 | – | > 100 | > 100 | – | > 100 | – | – | – | > 100 | > 100 | – | –
13 | O=c1c2c3c(sc2nc(N/N=C/c2ccc(Br)cc2)n1Cc1ccccc1)CCCC3 | > 100 | > 100 | 90.9 | > 100 | > 100 | > 100 | 7.83 µM | > 100 | > 100 | > 100 | > 100 | – | – | 5.63 | > 100 | 46.2 | > 100 | > 100 | 3.33 | 7.76
14 | C=C(C)[C@@H]1CC[C@]2(CO)CC[C@]3(C)[C@H](CC[C@@H]4[C@@]5(C)CCC(NCCc6ccc(O)cc6)C(C)(C)[C@@H]5CC[C@]43C)[C@@H]12 (some centres undefined) | 1.09 | 2.49 | 1.62 | 3.03 | – | – | 1.56 µM | 2.98 | 1.63 | 3.09 | – | 1.67 | 3.19 | 0.912 | 2.57 | 1.48 | 3 | – | – | –
15 | COc1ccc(CNc2nc3cc(N)cc(N)c3nc2-c2ccccc2)cc1 | 24.5 | 60.2 | 21.7 | 58 | 26.9 | > 100 | 13.6 µM | 26.5 | 14.9 | 29.8 | 28.2 | 16.8 | 34.3 | 13.2 | 26.5 | 21.5 | 59.8 | – | – | 14.9
16 | COc1ccc(OC(C(=O)O)c2ccccc2)c2c1CCCC2=O (centres undefined) | – | > 100 | – | – | – | – | – | > 100 | – | > 100 | > 100 | – | > 100 | – | – | – | > 100 | – | – | –
